# In PubChem BioAssay (NCI):
#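 Five compound concentrations were applied to cells in 96-well plates for 48 hours; endpoints were derived by simple linear interpolation of the resulting dose-response curve. At the GI50, growth is halved. TGI denotes the concentration required for complete inhibition of growth.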
# What was measured:
# Test in all cases: NCI anticancer screen, dose series, 48 h
# HCT-116 colon = system: HCT-116 colon
# HT29 colon = system: HT29 colon
# PC-3 prostate = system: PC-3 prostate
# SF-268 CNS = system: SF-268 CNS
# T-47D breast = system: T-47D breast
# UACC-62 melanoma = system: UACC-62 melanoma
# HCC-2998 colon = system: HCC-2998 colon
# HCT-15 colon = system: HCT-15 colon
# K-562 leukemia = system: K-562 leukemia
# SW-620 colon = system: SW-620 colon
Structure (SMILES),GI50 (HCT-116 colon),TGI (HCT-116 colon),GI50 (HT29 colon),TGI (HT29 colon),GI50 (PC-3 prostate),TGI (PC-3 prostate),GI50 (SF-268 CNS),TGI (SF-268 CNS),GI50 (T-47D breast),TGI (T-47D breast),GI50 (UACC-62 melanoma),TGI (UACC-62 melanoma),TGI (HCC-2998 colon),TGI (HCT-15 colon),TGI (K-562 leukemia),TGI (SW-620 colon),GI50 (HCC-2998 colon),GI50 (HCT-15 colon),GI50 (K-562 leukemia),GI50 (SW-620 colon)
COc1cc(C2C(C(=O)OCc3ccccc3)=C(C)NC(C)=C2C(=O)OCc2ccccc2)cc(OC)c1OC,2540 nM,> 100 µM,3350 nM,> 100 µM,1480 nM,> 100 µM,5.17 µM,> 100 µM,3.67 µM,> 100 µM,3620 nM,> 100 µM,,,,,,,,
CN/N=C(/CC(=O)c1sc(-n2nc(-c3ccccc3)cc2-c2ccccc2)nc1C)C(=O)Nc1ccc(Cl)c(Cl)c1,,> 100 µM,,> 100 µM,,,,> 100 µM,,,,> 100 µM,> 100 µM,> 100 µM,> 100 µM,> 100 µM,,,,
CS(=O)(=O)N(CC(=O)O)Cc1ccccc1,,> 100 µM,,> 100 µM,,> 100 µM,,> 100 µM,,> 100 µM,,> 100 µM,,> 100 µM,> 100 µM,> 100 µM,,,,
CCOC1=C2C(C)(CCC3[C@@]4(C)C=CC(=O)C(C)(C)C4CC(O)[C@@]23C)C(c2ccoc2)C1=O (stereo partly specified),,23.7 µM,,29.2 µM,,,,> 100 µM,,,,57.7 µM,31.1 µM,27.5 µM,50.2 µM,46.2 µM,,,,
O=C(CC(=O)c1cccc([N+](=O)[O-])c1)C(=O)Nc1nc([N+](=O)[O-])cs1,,> 100 µM,,> 100 µM,,,,> 100 µM,,,,> 100 µM,> 100 µM,> 100 µM,> 100 µM,> 100 µM,,,,
Cc1ccc(C)c(N2C(=O)C(=O)c3c(C)ccc(C)c32)c1,,32 µM,,46.4 µM,,> 100 µM,,78.2 µM,,68.3 µM,,34.8 µM,,27.2 µM,48.5 µM,> 100 µM,,,,
CCC[CH2][Ge]([CH2]CCC)([CH2]CCC)[O]C(=O)C(OC(C)=O)c1ccccc1 (stereo unspecified),139 nM,13.4 µM,742 nM,13.8 µM,,,1.46 µM,27.8 µM,,,1640 nM,15.6 µM,5.63 µM,14.5 µM,> 34 µM,20.6 µM,530 nM,1730 nM,202 nM,4590 nM
N#Cc1nc(Nc2ccc(Cl)cc2)sc1N,,> 100 µM,,> 51.9 µM,,,,> 77.9 µM,,,,42.8 µM,14.8 µM,> 94.6 µM,48.6 µM,> 69.1 µM,,,,
Nc1nc(Cl)nc2c1ncn2C1CCC(COP(=O)(O)OP(=O)(O)OP(=O)(O)O)O1 (stereo unspecified),,> 100 µM,,90.9 µM,,64.3 µM,,> 100 µM,,> 100 µM,,47.9 µM,86.1 µM,79.3 µM,,> 100 µM,,,,
O=C1C2C3CCC(C2C(=O)N1CO)C1C2C(=O)N(CO)C(=O)C2C31 (stereo unspecified),,> 54.2 µM,,> 100 µM,,,,> 86.3 µM,,,,> 100 µM,> 100 µM,> 60.4 µM,> 75.2 µM,> 67.5 µM,,,,
CCc1cccc(CC)c1NC(=O)c1ccn2c1CCc1cnc(Nc3ccc(N4CCN(C)CC4)cc3OC)nc1-2,,,1260 nM,9.36 µM,2500 nM,16.2 µM,3.14 µM,17.8 µM,1.55 µM,4.18 µM,2080 nM,4.52 µM,8.63 µM,2.55 µM,,5.94 µM,2280 nM,41.3 nM,,1110 nM
Cc1nn(-c2ccccc2)c(C)c1/C=N/N1CCN(Cc2ccccc2)CC1,28000 nM,> 100 µM,43000 nM,> 100 µM,25200 nM,96.5 µM,38 µM,> 100 µM,,,33800 nM,> 100 µM,,> 100 µM,> 100 µM,> 100 µM,,30400 nM,31200 nM,> 100000 nM
CC1=C2[C@@H](c3ccccc3)C3C=CC2(c2ccccc23)N(C(=O)Nc2cccc3ccccc23)C1=O (stereo partly specified),,> 100 µM,,,,,,> 100 µM,,,,> 100 µM,> 100 µM,> 100 µM,> 100 µM,> 100 µM,,,,
N#CC(C#N)=Cc1ccc(Oc2ccccc2)cc1,,44 µM,,56.1 µM,,,,> 69.5 µM,,,,35 µM,> 100 µM,> 100 µM,> 80.4 µM,72.3 µM,,,,
O=C1C(Cl)=C(Nc2cccc(O)c2)C(=O)N1c1ccc(Cl)cc1Cl,24300 nM,97.6 µM,35100 nM,> 100 µM,13900 nM,38.2 µM,28.4 µM,> 100 µM,43.6 µM,> 100 µM,21400 nM,57.7 µM,,> 100 µM,58.1 µM,38.3 µM,,29400 nM,22000 nM,17300 nM
COc1ccc(C(=O)c2cc(OC)c(OC)c(OC)c2)cc1/C=C/C(=O)c1ccc2c(c1)OCO2,,,,,4100 nM,> 100 µM,2.95 µM,> 100 µM,,,,,,,> 100 µM,3.77 µM,,,377 nM,396 nM
CCCCCCCCCCCCCC(=O)OC1C(CO)OC(=O)C1O (stereo unspecified),,> 100 µM,,> 100 µM,,,,> 100 µM,,,,> 100 µM,> 100 µM,> 100 µM,> 100 µM,> 100 µM,,,,
N=C(N)c1ccc(-c2ccc(-c3ccc(Cl)c(Cl)c3)o2)nc1,,,,,1720 nM,3.29 µM,2.08 µM,4.73 µM,,,,,,3.53 µM,,,,1770 nM,,
Cc1cn2c(/C=N/N=C(N)N)c(-c3cc(Cl)sc3Cl)nc2s1,,,1720 nM,12.1 µM,800 nM,1.48 µM,,,,,,,1.6 µM,8.55 µM,,,888 nM,1840 nM,,
C[CH2][Sn]([Cl])([CH2]C)[CH2]C,1330 nM,10.4 µM,439 nM,2.62 µM,,,1.59 µM,7.94 µM,,,515 nM,11.5 µM,1.66 µM,5.79 µM,5 µM,10.9 µM,354 nM,637 nM,718 nM,570 nM
